Data published in patent US20230147855A1, “METHODS OF GENERATING PLURIPOTENT STEM CELL-DERIVED VASCULAR SMOOTH MUSCLE CELLS, USES, AND COMPOSITION RELATED THERETO” (EMORY UNIVERSITY, priority 2020, published 2023).

Key:
[1] = tested on: hiPSC-VSMCs; test: Contractility of hiPSC-VSMCs in response to vasoactive agents; format: cell-based, human; settings: hiPSC-VSMCs treated with agent; FIG. 6B
Source text: (§1) A significant difference also between cells treated with carbachol and potassium chloride was observed (FIG. 6B).

[2] = tested on: hiPSC-VSMCs; test: Intracellular calcium flux (Fluo4 fluorescence) in hiPSC-VSMCs; format: cell-based, human; settings: FIG. 6A
Source text: as §1

[Cl-].[K+] [KCl, potassium chloride]
contractility [1]: significantly increased contractility

C[N+](C)(C)CCOC(N)=O [carbachol]
contractility [1]: significantly increased contractility
Fluo4 fluorescence (intracellular calcium flux) [2]: dramatic increase
